Laboratory results taken from publication PMC3092815 (Proteins, 2011).

Legend:
[1] = target: T1, C. perfringens PepcA (archaeal-type phosphoenolpyruvate carboxylase) (Clostridium perfringens, UniProt Q8XLE8); experiment: biochemical
[2] = target: T1, C. perfringens PepcA (archaeal-type phosphoenolpyruvate carboxylase)

N[C@@H](CC(=O)O)C(=O)O [aspartate] showed a Ki [1] of 200 µM.
Compound Mg^++.PEP has a Km [2] of 60 µM.
